Laboratory results: publication PMC11981937 (Nature, 2025)
pEC50: −log10 of the molar value. Where “and” joins values, the source holds several entries; their conditions need not be identical. Equal values may be shown once. Entries after “also recorded” stand apart in the source; their conditions may differ. Read-outs that look alike come from different tables or passages of the source.

What was measured:
SARS-CoV-2 = type: in vivo, Syrian golden hamster; settings: for Infectious virus in the lung (TCID50), average Log 10 / Infectious virus in the lung (TCID50), median Log 10 / Viral load (viral RNA) in the lung, average Log 10 / Viral load (viral RNA) in the lung, median Log 10 / Infectious virus in the lung (TCID50), Copy number, individual animal / Infectious virus in the lung (TCID50), Log 10, individual animal / Viral load (viral RNA) in the lung, Copy number, individual animal / Viral load (viral RNA) in the lung, Log 10, individual animal: 75 mg/kg BID; for Infectious virus in the lung (TCID50), average Log 10 / Infectious virus in the lung (TCID50), median Log 10 / Viral load (viral RNA) in the lung, average Log 10 / Viral load (viral RNA) in the lung, median Log 10: n=5; for Infectious virus in the lung (TCID50), Copy number, individual animal / Infectious virus in the lung (TCID50), Log 10, individual animal / Viral load (viral RNA) in the lung, Copy number, individual animal / Viral load (viral RNA) in the lung, Log 10, individual animal: listed as 87009676-AAA
in vivo = settings: dog
[1] = system: SARS-CoV-2 (USA-WA1/2020); design: species or system Syrian golden hamster; settings: hamster, in vivo
[2] = Post-exposure Syrian golden hamster model, body weight; settings: in vivo, 75 mg/kg
HCoV-OC43 = HCoV-OC43 antiviral CPE reduction assay in MRC-5 cells; type: cell-based
Description: 161 determined with Promega CellTiter 96™ via a colorimetric assay (MTS assay). Readout was done
162 using a GloMax® Discover Microplate Reader (Promega).
163 Data were normalized taking the infected cells without treatment and the mock non-infected cells
164 as the bottom and top values of the dose-response curves, respectively. Dose-response curves were
165 fitted using non-linear regression analysis employing a sigmoidal model in Graphpad Prism
166 (version 9.5.0). In each experiment, data were presented as mean ± standard error of the mean of
167 3 technical replicates.
168 HCoV-OC43 antiviral CPE reduction assay
169 For the HCoV-OC43 CPE reduction assay, MRC-5 cells were seeded in black or white 96-well
170 plates (Greiner Bio-One) at a density of 10,000 cells/well and incubated overnight at 37°C. The
171 next day, compound was added to the assay plates in either a 4-fold dilution series or 2-fold dilution
172 series. Sequentially, cells were infected with HCoV-OC43 at a final MOI of 0.3. Plates were then
173 incubated for 6 days at 33°C under 5% CO2. […]
174 determined using the Viral ToxGlo™ assay (Promega) on a BioTek spectrophotometer.
175 Cytotoxicity was evaluated in parallel in treated, uninfected cells in a similar set-up with the same
176 readout. EC50 and CC50 values were calculated using GraphPad Prism 9.5.0. […]
181 0.1. […] Readouts for antiviral activity […]

[3] = molecular target: purified recombinant SARS-CoV-2 M (Severe acute respiratory syndrome coronavirus 2, UniProt P0DTC5); test: Nano differential scanning fluorimetry (nanoDSF); type: binding; settings: 100 µM compound, 0.5 mg/ml M protein, n=3
MHV = MHV antiviral assay in HeLa cells (luciferase); type: cell-based, mouse hepatitis virus; settings: Murine coronavirus, MHV (betaCoV)
SARS-CoV-2 (B1) = type: cell-based
Pg-CoV = test: microbe, parasite or virus in culture; type: cell-based; settings: Pangolin coronavirus
SARS-CoV = test: microbe, parasite or virus in culture; type: cell-based; settings: Severe acute respiratory syndrome coronavirus, Vero
HCoV-229E = test: microbe, parasite or virus in culture; type: cell-based; settings: Human coronavirus 229E
SHC014 = test: organism not typed; type: cell-based, bat SHC014
[4] = female, Syrian golden, hamster, in vivo, po
[5] = type: in vivo, Syrian golden hamster; settings: pre-exposure; for % body weight change compared to day 0, Avg: day 4 vs day 0, group average; for % body weight change compared to day 0: day 4 vs day 0, individual animals
in vitro = settings: African green monkey

With `C[C@H]1Cn2ncc(C(=O)Nc3cccc(C#N)c3)c2C(=O)N1c1ccc(C(F)(F)c2ccccc2)cc1` [JNJ-9676, (S)-N-(3-cyanophenyl)-5-(4-(difluoro(phenyl)methyl)phenyl)-6-methyl-4-oxo-4,5,6,7-tetrahydropyrazolo[1,5-a]pyrazine-3-carboxamide] the “Infectious virus in the lung (TCID50), average Log 10” value (“Infectious virus … average Log 10” for short) (SARS-CoV-2; 10 h post exposure) was 1.99 Log 10, the “Infectious virus in the lung (TCID50), median Log 10” value (from here on “Infectious virus … median Log 10”) (SARS-CoV-2; 10 h post exposure) was 1.84 Log 10 and the “Viral load (viral RNA) in the lung, average Log 10” value (“Viral load … average Log 10” for short) (SARS-CoV-2; 10 h post exposure) was 6.33 Log 10. The “Viral load (viral RNA) in the lung, median Log 10” value (from here on “Viral load … median Log 10”) (SARS-CoV-2; 10 h post exposure) was 6.02 Log 10, the “Infectious virus in the lung (TCID50), Copy number, individual animal” value (SARS-CoV-2; 10 h post exposure) was 3.34E+02 and 6.93E+01 and 7.21E+00 and 6.50E+01 and 8.01E+02 and the “Infectious virus in the lung (TCID50), Log 10, individual animal” value (“Infectious virus … Log 10, individual animal” for short) (SARS-CoV-2; 10 h post exposure) was 2.52 Log 10 and 1.84 Log 10 and 0.86 Log 10 and 1.81 Log 10 and 2.90 Log 10. The “Viral load (viral RNA) in the lung, Copy number, individual animal” value (“Viral load … Copy number, individual animal” for short) (SARS-CoV-2; 10 h post exposure) was 1.05E+06 and 4.63E+06 and 1.13E+05 and 8.39E+05 and 9.46E+07, the “Viral load (viral RNA) in the lung, Log 10, individual animal” value (from here on “Viral load … Log 10, individual animal”) (SARS-CoV-2; 10 h post exposure) was 6.02 Log 10 and 6.67 Log 10 and 5.05 Log 10 and 5.92 Log 10 and 7.98 Log 10 and the “Infectious virus … average Log 10” value (SARS-CoV-2; 24 h post exposure) was 1.64 Log 10. The “Infectious virus … median Log 10” value (SARS-CoV-2; 24 h post exposure) was 1.62 Log 10, the “Viral load … average Log 10” value (SARS-CoV-2; 24 h post exposure) was 6.39 Log 10 and the “Viral load … median Log 10” value (SARS-CoV-2; 24 h post exposure) was 6.81 Log 10. For the same compound, the “Infectious virus in the lung (TCID50), Copy number, individual animal” value (SARS-CoV-2; 24 h post exposure) was 4.14E+01 and 7.14E+01 and 5.40E+01 and 2.87E+01 and 3.52E+01, the “Infectious virus … Log 10, individual animal” value (SARS-CoV-2; 24 h post exposure) was 1.62 Log 10 and 1.85 Log 10 and 1.73 Log 10 and 1.46 Log 10 and 1.55 Log 10 and the “Viral load … Copy number, individual animal” value (SARS-CoV-2; 24 h post exposure) was 9.36E+06 and 2.59E+04 and 3.10E+05 and 6.49E+06 and 1.85E+08. The “Viral load … Log 10, individual animal” value (SARS-CoV-2; 24 h post exposure) was 6.97 Log 10 and 4.41 Log 10 and 5.49 Log 10 and 6.81 Log 10 and 8.27 Log 10, the “Infectious virus … average Log 10” value (SARS-CoV-2; 48 h post exposure) was 1.82 Log 10 and the “Infectious virus … median Log 10” value (SARS-CoV-2; 48 h post exposure) was 1.67 Log 10. The “Viral load … average Log 10” value (SARS-CoV-2; 48 h post exposure) was 7.33 Log 10, the “Viral load … median Log 10” value (SARS-CoV-2; 48 h post exposure) was 7.46 Log 10 and the “Infectious virus in the lung (TCID50), Copy number, individual animal” value (SARS-CoV-2; 48 h post exposure) was 4.79E+01 and 7.10E+02 and 4.67E+01 and 2.27E+01 and 3.31E+01. For the same compound, the “Infectious virus … Log 10, individual animal” value (SARS-CoV-2; 48 h post exposure) was 1.68 Log 10 and 2.85 Log 10 and 1.67 Log 10 and 1.36 Log 10 and 1.52 Log 10, the “Viral load … Copy number, individual animal” value (SARS-CoV-2; 48 h post exposure) was 5.20E+06 and 3.10E+06 and 6.15E+07 and 1.50E+08 and 2.86E+07 and the “Viral load … Log 10, individual animal” value (SARS-CoV-2; 48 h post exposure) was 6.72 Log 10 and 6.49 Log 10 and 7.79 Log 10 and 8.18 Log 10 and 7.46 Log 10. For the same compound, the “efficacy (in words)” value (SARS-CoV-2; hamster, in vivo) was “efficacious; also recorded: significant efficacy”, the “reduction of infectious virus in the lung” value (SARS-CoV-2; hamster, in vivo) was 1.8 log10[TCID50 per mg lung] and the “Infectious virus in the lung, reduction relative to vehicle” value (SARS-CoV-2; hamster, in vivo, 75 mg/kg) was 1.65 (p=0.0003) log10 TCID50/mg lung and 2.00 (p<0.0001) log10 TCID50/mg lung and 1.83 (p<0.0001) log10 TCID50/mg lung and 1.65 (p=0.0003) log10 TCID50/mg lung and 2.00 (p<0.0001) log10 TCID50/mg lung and 1.83 (p<0.0001) log10 TCID50/mg lung. For the same compound, the “Viral load in the lung, reduction relative to vehicle” value (SARS-CoV-2; hamster, in vivo, 75 mg/kg) was 2.38 (p=0.0004) log10 copies/mg lung and 2.32 (p=0.0005) log10 copies/mg lung and 1.38 (p>0.05) log10 copies/mg lung and 2.38 (p=0.0004) log10 copies/mg lung and 2.32 (p=0.0005) log10 copies/mg lung and 1.38 (p>0.05) log10 copies/mg lung, the Vd (in vivo) was 8.2 L/kg and the clearance (in vivo) was under 1.5 mL/min/kg. The half-life (in vivo) was over 40 h, the bioavailability (in vivo; po) was over 80% and the “Infectious SARS-CoV2 virus in the lung, Avg” value [1] was 137996 PFU/g Lung and 75729 PFU/g Lung. The “Infectious SARS-CoV2 virus in the lung, Log10, Avg” value [1] was 3.732 Log10 PFU/g Lung and 3.479 Log10 PFU/g Lung, the “Average body weight change (%) on day 4 compared to day 0” value [2] was -0.615% and -5.840% and -3.968% and the EC90 (HCoV-OC43; Betacoronavirus 1, MRC5, MRC-5, HCOV-OC43 (betaCoV), EC90 could be calculated in one experiment, read-out: Median EC90) was 4000 nM. The pEC50 (HCoV-OC43; Betacoronavirus 1, OC43, MRC5, read-out: Median EC50) was 5.41, the Tm [3] was 54.1 ± 0.1 °C and the “ΔTm (stabilization in melting temperature)” value [3] was 0.9 °C. The pEC50 (MHV; read-out: EC50 (column Median EC50; N=1, no median)) was 5.89, the EC90 (MHV; read-out: EC90 (column Median EC90; N=1, no median)) was 6300 nM and the “biogenesis of infectious progeny” value (SARS-CoV-2 (B1)) was “inhibited completely”. The pEC50 (Pg-CoV) was 8.22 to 8.40, the pEC50 (SARS-CoV; read-out: Median EC50) was 7.80 and the EC90 (SARS-CoV; read-out: Median EC90) was 20 nM. It also gave a pEC50 (HCoV-229E; read-out: Median EC50) of under 4.90, an EC90 (HCoV-229E; read-out: Median EC90) of over 12500 nM and a pEC50 (SHC014) of 8.22 to 8.40. The “Concentration, individual animal” value ([4]; 5 mg/kg, 12 h) was 153 ng/mL, the “Concentration, individual animal” value ([4]; 50 mg/kg, 1 h) was 908 ng/mL and the “% body weight change compared to day 0, Avg” value (“% body weight change … Avg” for short) ([5]; JNJ-9676 8.33 mpk BID) was 1.86%. For the same compound, the “% body weight change compared to day 0” value ([5]; JNJ-9676 8.33 mpk BID, 8.33 mg/kg) was 2.5% and 0.6% and 1.8% and 3% and 1.4%, the “% body weight change … Avg” value ([5]; JNJ-9676 25 mpk BID) was 5.08% and the “% body weight change compared to day 0” value ([5]; JNJ-9676 25 mpk BID, 25 mg/kg) was 3.8% and 4.1% and 7.5% and 7.1% and 2.9%. The “% body weight change … Avg” value ([5]; JNJ-9676 75 mpk BID) was 2.14%, the “% body weight change compared to day 0” value ([5]; JNJ-9676 75 mpk BID, 75 mg/kg) was -0.3% and 0.3% and 3.9% and 4.1% and 2.7% and the CC50 (in vitro) was over 50000 nM.
